Two molecules from patent US20150290265A1, “COMPOSITION FOR TREATING METABOLIC DISORDERS” (PIRAMAL ENTERPRISES LIMITED, priority 2012, published 2015) can be followed below.

Each structure is given as a SMILES string.

For test [1], the target named is T1, human DGAT-1 enzyme (Homo sapiens, UniProt O75907).
T1 construct: host or cells: Sf9 insect cells (baculovirus, Bac-to-Bac); microsomal fraction
T1 sequence (O75907 1-488): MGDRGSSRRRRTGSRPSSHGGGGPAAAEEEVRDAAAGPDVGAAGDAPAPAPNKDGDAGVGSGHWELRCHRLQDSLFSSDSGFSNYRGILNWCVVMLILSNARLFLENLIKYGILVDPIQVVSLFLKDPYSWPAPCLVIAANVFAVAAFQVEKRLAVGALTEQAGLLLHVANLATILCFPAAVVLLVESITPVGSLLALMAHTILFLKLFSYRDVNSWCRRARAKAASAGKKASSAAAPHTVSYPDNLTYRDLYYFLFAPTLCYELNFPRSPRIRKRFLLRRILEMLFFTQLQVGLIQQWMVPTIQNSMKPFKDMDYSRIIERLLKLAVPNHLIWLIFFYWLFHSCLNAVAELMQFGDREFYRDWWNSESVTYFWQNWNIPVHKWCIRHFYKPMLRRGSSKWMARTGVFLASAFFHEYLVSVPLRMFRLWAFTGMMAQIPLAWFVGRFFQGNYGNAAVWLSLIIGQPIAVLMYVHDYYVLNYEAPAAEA
The experiment in a line: hDGAT-1 inhibition assay (microsomes from Sf9 cells, [14C]oleoyl-CoA incorporation). The note with it: 50 μg/mL. The class given is biochemical.
Experimental: The DGAT-1 assay was designed using human DGAT-1 enzyme over expressed in Sf9 cell-line as described in the reference, European Journal of Pharmacology, 650, 663-672, 2011, the disclosure of which is incorporated by reference for the teaching of the assay.
Enzyme was diluted to a working concentration of 1 mg/mL in hDGAT-1 assay buffer, 2.5 μL of the working enzyme stock was used in hDGAT-1 assay (final concentration 25 μg/mL).
The test samples were prepared as follows. […] The working stock was prepared in hDGAT-1 assay buffer. 10 μL of working stock was added into 100 μL of assay mixture to obtain the final concentration of extracts at 50 μg/mL.
60 μL of substrate mix (as described above) was added to a total assay volume of 100 μL. The reaction was started by adding 2.5 μg hDGAT-1 containing microsomal protein and was incubated at 37° C. for 10 min. The reaction was stopped by adding 300 μL of alkaline ethanol stop solution mix (AESSM). […] 250 μL of the upper heptane was added into 4 mL of scintillation fluid and measured using a liquid scintillation counter (Packard; 1600CA) as disintegration per min (dpm) counts. The percentage inhibition was calculated with respect to the vehicle.

The target in test [2] is T2, SCD-1 enzyme (Rattus norvegicus, UniProt P07308).
T2 construct: Male Sprague-Dawley rats (150-175 g) were fasted for two days and then fed on low fat diet for three days to induce SCD-1 activity; from tissue; host or cells: liver microsomes of male Sprague-Dawley rats
T2 sequence (P07308 1-358): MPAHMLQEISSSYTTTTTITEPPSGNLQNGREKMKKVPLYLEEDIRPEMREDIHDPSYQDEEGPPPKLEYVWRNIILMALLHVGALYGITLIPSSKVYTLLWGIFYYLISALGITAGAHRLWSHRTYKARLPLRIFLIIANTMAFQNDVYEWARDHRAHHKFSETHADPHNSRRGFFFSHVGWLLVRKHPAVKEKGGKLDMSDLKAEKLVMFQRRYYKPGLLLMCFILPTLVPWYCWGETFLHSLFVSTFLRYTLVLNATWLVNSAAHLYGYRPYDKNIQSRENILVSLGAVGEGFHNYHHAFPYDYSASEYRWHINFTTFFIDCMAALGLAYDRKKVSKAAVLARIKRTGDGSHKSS
The experiment in a line: SCD-1 inhibition assay (rat liver microsomes, 3H2O release). The class given is biochemical. To be noted: 50 μg/mL. As to the method: The assay was carried out according to the method described in reference, European Journal of Pharmacology, 618, 28-36, 2009, the disclosure of which is incorporated by reference for the teaching of the assay.
The SCD-1 enzyme was prepared from rat liver microsomes as described in PCT Publication Application WO2008/074835A1, the disclosure of which is incorporated herein by reference for the teaching of the assay.
Male Sprague-Dawley rats (150-175 g) were fasted for two days and then fed on low fat diet for three days to induce SCD-1 activity. The rats were then sacrificed and their livers were removed and placed on ice. The livers were finely chopped with scissors and then homogenized using a Polytron homogenizer in a homogenization buffer (150 mM KCl, 250 mM sucrose, 50 mM tris-HCl, pH 7.5, 5 mM EDTA, and 1.5 mM reduced glutathione) at 4° C. The homogenate was centrifuged at 1500×g for 20 min at 4° C. […]
The microsomes (62.5 μg) were treated with the test sample for 15 min. […] The filtrate containing ^3H2O was transferred to scintillation vials containing 4 mL of scintillation fluid and the cpm counts were measured using a liquid scintillation counter. The % inhibition was calculated with reference to the vehicle control.
The dose response was determined at concentrations of 25 μg/mL, 50 μg/mL and 100 μg/mL by serially diluting stock solutions of Extract of Example 2.
In general terms: Liver microsomes are vesicles of endoplasmic reticulum, rich in cytochrome P450 enzymes.

Test [3] can be described thus: High fat diet (HFD) induced body weight gain study in mice. The note with it: Mean ± S.E.M. The class given is in vivo, C57BL/6J mice. The procedure:
Male C57BL/6J mice (in-house; Central Animal Facility, Piramal Healthcare Limited, Goregaon, Mumbai, Maharashtra, India) were acclimatized with HFD (60% Kcal, D12492, Research Diets, USA) for two weeks. […] Orlistat (Biocon, India) was used as the standard drug and was administered orally at a dose of 15 mg/kg body weight, twice daily. A separate group of ten mice was fed a low fat diet (LFD, 10% kcal, D12450B, Research Diet, USA) as a normal control. Vehicle was administered to the HFD and LFD control groups at dose of 10 mL/kg body weight. The treatments were continued for a period of sixty days. Body weight and feed intake were monitored daily. The % change in body weight (% increase in body weight from day 1) and the cumulative feed intake data was calculated. On day sixtyone, blood samples (˜200 μL/mice) were collected in heparinised (50 IU/mL) micro-centrifuge tubes under isoflurane anesthesia. Plasma was separated by centrifugation at 10000 rpm at 4° C. for estimation of various plasma biochemistry parameters. The biochemistry analysis was performed on BS-400 autoanalyzer (Mindray, China). […] All the data was analyzed for statistical significance by one-way ANOVA followed by Dunnet's post-hoc test and values of P<0.05 were considered as significant. […]

For the molecule `C[C@@H]1O[C@@H](Oc2cc3c(=O)oc4c(O)c(O)cc5c(=O)oc(c2O)c3c45)[C@H](O)[C@H](O)[C@H]1O` [The compound 1, Ellagic acid, 4-O-alpha-L-rhamnopyranoside], in test [1], the “activity in the hDGAT-1 inhibition assay (conclusion)” value is listed as “active”. Further, the results for the inhibition at 50 µg/mL in test [1] (Table 1) and in test [2] (Table 3) were 85% and 74.2%, respectively. In test [2], the “activity in the SCD-1 inhibition assay (conclusion)” value is listed as “active”.
On to `CCCCCCCCCCC[C@@H](C[C@@H]1OC(=O)[C@H]1CCCCCC)OC(=O)[C@H](CC(C)C)NC=O` [Orlistat], for which, in test [3] (day 0 (baseline)), the “Body weight (g, day 0)” value was found to be 26.4 ± 0.4 g. Moreover, the “Body weight (g, day 60)” value in test [3] (day 60, Extract 500 mg/kg orally once daily, Orlistat 15 mg/kg orally twice daily) amounted to 30.9 ± 0.9 g.

In general, inhibition refers to the percentage by which the read-out fell short of the control. High values mean a strong effect, low ones a weak effect.
